Among the data in ChEMBL document CHEMBL2417475, “Synthesis and SAR studies of marine natural products ma'edamines A, B and their analogues” (Bioorg Med Chem Lett, 2013) are IC50 values, retold here.

What all share (format): functional, cell-based
In one experiment the test system is CAMA-1. Kind of experiment: Antiproliferative activity against human progesterone receptor and HER2 deficient CAMA1 cells expressing estrogen receptor after 72 hrs by MTT assay. To be noted: CAMA-1, 72 h. On the technique in general: Formazan colour is commonly taken as a measure of viable cells.
Another experiment deals with T47D. Kind of experiment: Antiproliferative activity against human HER2 deficient T47D cells expressing estrogen receptor and progesterone receptor after 72 hrs by MTT assay.
The test system of a further experiment is SK-BR-3. Kind of experiment: Antiproliferative activity against human estrogen receptor and progesterone receptor deficient SKBR3 cells expressing HER2 after 72 hrs by MTT assay. To be noted: SK-BR-3, 72 h.

Regarding `COc1ccc(Cc2nc(-c3cc(Br)c(O)c(Br)c3)cnc2Cl)cc1Br`, the IC50 in the experiment on CAMA-1, with T47D and in the experiment on SK-BR-3 was > 10 µM each time.
For `CN(C)CCCOc1c(Br)cc(-c2c[nH]c(=O)c(Cc3ccccc3)n2)cc1Br`, the IC50 came to 7.1 µM in the experiment on CAMA-1, 6.33 µM in the experiment on T47D and 5.5 µM with SK-BR-3.
On the same counts, the results for `CNCCCOc1c(Br)cc(-c2c[nH]c(=O)c(Cc3ccccc3)n2)cc1Br` are > 10 µM, > 10 µM and > 10 µM.
For `COc1ccc(Cc2nc(-c3cc(Br)c(OCCN(C)C)c(Br)c3)c[nH]c2=O)cc1Br` the same measures were > 10 µM, 5.67 µM and 5.73 µM.
With `CNCCOc1c(Br)cc(-c2c[nH]c(=O)c(Cc3ccc(OC)c(Br)c3)n2)cc1Br`, the half-maximal inhibitory concentration (IC50) is > 10 µM in the experiment with CAMA-1, 6.18 µM in the experiment with T47D and 8.1 µM with SK-BR-3.
On the same counts, the results for `COc1ccc(Cc2nc(-c3cc(Cl)c(OCCCN(C)C)c(Cl)c3)c[nH]c2=O)cc1Cl` are > 10 µM, > 10 µM and > 10 µM.
For `CN(C)CCCOc1c(Br)cc(-c2c[nH]c(=O)c(Cc3c[nH]c4ccccc34)n2)cc1Br` the same measures were > 10 µM, 6.33 µM and 7 µM.
On the same counts, the results for `CNCCCOc1c(Br)cc(-c2c[nH]c(=O)c(Cc3c[nH]c4ccccc34)n2)cc1Br` are 5.77 µM, 4 µM and 4.33 µM.
Take `CC(C)c1nc(-c2cc(Br)c(OCCCN(C)C)c(Br)c2)c[nH]c1=O`: the 50% inhibitory concentration (IC50) in the experiment with CAMA-1, with T47D and in the experiment with SK-BR-3 was > 10 µM each time.
For `COc1ccc(Cc2nc(-c3cc(Br)c(OCCCN4CCOCC4)c(Br)c3)c[nH]c2=O)cc1Br`, the half-maximal inhibitory concentration (IC50) with CAMA-1, in the experiment with T47D and in the experiment with SK-BR-3 was > 10 µM each time.
On to `CCN(CC)CCCOc1c(Br)cc(-c2c[nH]c(=O)c(Cc3ccc(OC)c(Br)c3)n2)cc1Br`, for which the half-maximal inhibitory concentration (IC50) in the experiment on CAMA-1 was 5.23 µM; in the experiment with T47D, > 10 µM; in the experiment with SK-BR-3 it was 6 µM.
With `COc1ccc(Cc2nc(-c3ccc(OCCCN4CCOCC4)cc3)c[nH]c2=O)cc1`, the IC50 with CAMA-1, with T47D and in the experiment with SK-BR-3 was > 10 µM in each case.
With `COc1ccc(Cc2nc(-c3ccc(OCCCN(C)C)cc3)c[nH]c2=O)cc1`, the IC50 in the experiment on CAMA-1, in the experiment on T47D and with SK-BR-3 was > 10 µM throughout.
Take `CN(C)CCCOc1c(Br)cc(-c2c[nH]c(=O)c(Cc3ccc(O)c(Br)c3)n2)cc1Br`: the results for the half-inhibitory concentration (IC50) in the experiment on CAMA-1, with T47D and in the experiment on SK-BR-3 were 6.67 µM, 4.77 µM and 5.67 µM, respectively.
Take `COc1ccc(Cc2nc(-c3cc(Br)c(OCCCCN4CCOCC4)c(Br)c3)c[nH]c2=O)cc1Br`: the half-inhibitory concentration (IC50) with CAMA-1, in the experiment on T47D and in the experiment with SK-BR-3 was > 10 µM throughout.
With `COc1ccc(Cc2nc(-c3cc(Br)c(OCCCCN(C)C)c(Br)c3)c[nH]c2=O)cc1Br`, the IC50 in the experiment with CAMA-1, in the experiment with T47D and in the experiment with SK-BR-3 was > 10 µM throughout.
Consider `COc1ccc(Cc2nc(-c3ccc(OCCCCN(C)C)cc3)c[nH]c2=O)cc1`, for which the concentration for half-maximal inhibition (IC50) in the experiment with CAMA-1, in the experiment with T47D and in the experiment with SK-BR-3 was > 10 µM in each case.
Turning to `CN(C)CCCOc1ccc(-c2c[nH]c(=O)c(Cc3c[nH]c4ccccc34)n2)cc1`, the IC50 in the experiment on CAMA-1 and with SK-BR-3 was > 20 µM in each case.
In the case of `CNCCCOc1ccc(-c2c[nH]c(=O)c(Cc3c[nH]c4ccccc34)n2)cc1`, the IC50 in the experiment on CAMA-1 and in the experiment with SK-BR-3 was > 20 µM each time.
Turning to `O=c1[nH]cc(-c2ccccc2)nc1Cc1ccccc1`, the IC50 in the experiment with CAMA-1, with T47D and in the experiment with SK-BR-3 was > 10 µM throughout.
Turning to `CS(=O)(=O)CCNCc1ccc(-c2ccc3ncnc(Nc4ccc(OCc5cccc(F)c5)c(Cl)c4)c3c2)o1` [LAPATINIB], the results for the 50% inhibitory concentration (IC50) in the experiment on CAMA-1, with T47D and in the experiment on SK-BR-3 were > 10 µM, > 10 µM and 5.05 µM, respectively.
On to `COc1ccc(Cc2nc(-c3cc(Br)c(OCCCN(C)C)c(Br)c3)c[nH]c2=O)cc1Br` [Ma'edamine A], for which the half-inhibitory concentration (IC50) with CAMA-1, in the experiment on T47D and in the experiment with SK-BR-3 was > 10 µM each time.
In the case of `CNCCCOc1c(Br)cc(-c2c[nH]c(=O)c(Cc3ccc(OC)c(Br)c3)n2)cc1Br` [Ma'edamine B], the figures for the IC50 with CAMA-1, in the experiment on T47D and with SK-BR-3 were 5.77 µM, 6 µM and 4 µM, respectively.

What is called IC50 is the concentration that inhibits the measured activity by half.
